In patent publication US12528801B2 (Givaudan SA, priority 2019, dated 2026):

These compounds were tested against T1, hTRPM8 (Homo sapiens, UniProt Q7Z2W7) (assay: Assay on TRPM8 modulators: calcium imaging (Fluo-4, Flexstation) in HEK293 cell line stably expressing hTRPM8). Conditions: HEK293 cells stably expressing hTRPM8; calcium influx, Fluo-4, Flexstation 3; sigmoidal dose-response fit.
T1 construct: expressed in transfected cells
T1 sequence (Q7Z2W7 whole entry): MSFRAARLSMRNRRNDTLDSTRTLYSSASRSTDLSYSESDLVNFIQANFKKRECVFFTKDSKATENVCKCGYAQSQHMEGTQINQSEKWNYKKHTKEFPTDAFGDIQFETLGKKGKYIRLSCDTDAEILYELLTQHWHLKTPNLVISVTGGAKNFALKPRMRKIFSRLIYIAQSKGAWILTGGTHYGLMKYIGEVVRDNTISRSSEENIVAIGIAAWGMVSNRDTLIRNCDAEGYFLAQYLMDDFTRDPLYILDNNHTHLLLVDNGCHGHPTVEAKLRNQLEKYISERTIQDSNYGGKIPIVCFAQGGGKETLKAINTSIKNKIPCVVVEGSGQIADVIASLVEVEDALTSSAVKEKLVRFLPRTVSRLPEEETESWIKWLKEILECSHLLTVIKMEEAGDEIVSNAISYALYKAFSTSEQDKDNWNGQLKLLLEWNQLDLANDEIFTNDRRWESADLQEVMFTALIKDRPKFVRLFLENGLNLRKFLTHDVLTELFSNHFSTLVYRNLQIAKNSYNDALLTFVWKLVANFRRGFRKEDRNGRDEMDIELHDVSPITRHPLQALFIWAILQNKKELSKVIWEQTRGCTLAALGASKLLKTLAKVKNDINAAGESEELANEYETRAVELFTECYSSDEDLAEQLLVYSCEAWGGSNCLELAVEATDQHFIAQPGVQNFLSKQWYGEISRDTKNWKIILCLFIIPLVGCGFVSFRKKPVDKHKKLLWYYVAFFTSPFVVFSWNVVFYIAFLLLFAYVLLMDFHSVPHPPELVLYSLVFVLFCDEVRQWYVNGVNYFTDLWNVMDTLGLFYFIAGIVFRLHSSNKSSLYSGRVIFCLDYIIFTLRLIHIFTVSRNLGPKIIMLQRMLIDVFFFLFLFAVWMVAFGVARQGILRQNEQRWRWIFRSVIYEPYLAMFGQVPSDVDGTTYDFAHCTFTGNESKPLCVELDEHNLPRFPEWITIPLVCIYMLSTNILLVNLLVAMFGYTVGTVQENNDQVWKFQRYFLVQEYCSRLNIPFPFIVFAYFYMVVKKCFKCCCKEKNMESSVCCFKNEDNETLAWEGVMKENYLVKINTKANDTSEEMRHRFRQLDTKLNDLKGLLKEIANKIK
Assay type: cell-based
Protocol: A HEK293 cell line stably expressing hTRPM8 was generated according to Klein of at, (Chem. Senses 36: […], 2011) and receptor activation was monitored by calcium imaging in a Flexstation. For Ca-imaging assays of TRPM8 channel activation, cells were seeded on day 0 at a density of 12000 cells per well in Dulbecco's modified Eagle medium (DMEM) containing 9% foetal bovine serum in black, clear bottom 96-well plates that had been coated with 0.001% polyethyleneimine (molecular weight=60 000, Acros Organics). On day 2, agonists were evaluated via calcium imaging using Fluo-4. Briefly, growth medium was discarded, and the cells were incubated in the dark for 1 h at 37° C. in 50 μL loading buffer consisting of 2.7 μM Fluo-4 AM (Invitrogen) and […] probenecid (Sigma-Aldrich) in DMEM (without serum). After incubation, the plates were washed five times with 100 μL of assay buffer (in mM: 130 NaCl, 5 KCl, 10 HEPES, 2 CaCl2, and 10 glucose, pH7.4.) and further incubated in the dark at room temperature for 30 min. The cells were then washed five times with 100 μL assay buffer and then calcium influx to serial dilutions of inventive compounds were measured in a Flexstation 3 (Molecular Devices). Receptor activation was initiated following addition of 20 μl of a 10-fold concentrated ligand stock solution, which is also prepared in assay buffer. Fluorescence was continuously monitored for 15 seconds prior to ligand addition and for 105 seconds after ligand addition, for a total of 120 seconds. Maximal receptor activation in relation to solvent control and relative to 31.6 μM menthol is determined. Data from serial dilutions were processed with a KNIME workflow to fit a sigmoidal dose-response curve and to extrapolate […].
For CO[C@@H]1C[C@H]1C(=O)N1CCCCC1c1nc(-c2ccccc2)c[nH]1 (relative stereo) [Compound 5, (trans-2-methoxycyclopropyl)(2-(4-phenyl-1H-imidazol-2-yl)piperidin-1-yl)methanone], the EC50 was 1000 to 35000 nM. With N#C[C@@H]1C[C@@H]1C(=O)N1CCCCC1c1nc(-c2ccccc2)c[nH]1 (relative stereo) [Compound 90, cis-2-(2-(4-phenyl-1H-imidazol-2-yl)piperidine-1-carbonyl)cyclopropane-1-carbonitrile] the EC50 was 1000 to 35000 nM. O=C(c1cnns1)N1CCCCC1c1nc(-c2ccccc2)c[nH]1 (centres unmarked) [Compound 1, (2-(4-phenyl-1H-imidazol-2-y)piperidin-1-yl)(1,2,3-thiadiazol-5-yl)methanone] showed an EC50 of 1000 to 35000 nM. O=C(C1CSC1)N1CCCCC1c1nc(-c2ccccc2)c[nH]1 (centres unmarked) [Compound 2, (2-(4-phenyl-1H-imidazol-2-yl)piperidin-1-yl)(thietan-3-yl)methanone] was tested, and the EC50 was 300 to 1000 nM. For CC1(C)CC1C(=O)N1CCCCC1c1nc(-c2ccccc2)c[nH]1 (centres unmarked) [Compound 3, (2,2-dimethylcyclopropyl)(2-(4-phenyl-1H-imidazol-2-yl)piperidin-1-yl)methanone], the EC50 was under 50 nM. For CCOC1CC1C(=O)N1CCCCC1c1nc(-c2ccccc2)c[nH]1 (centres unmarked) [Compound 4, (2-ethoxycyclopropyl)(2-(4-phenyl-1H-imidazol-2-yl)piperidin-1-yl)methanone], the EC50 was 300 to 1000 nM. CC1CC1C(=O)N1CCCCC1c1nc(-c2ccccc2)c[nH]1 (centres unmarked) [Compound 6, (2-methylcyclopropyl)(2-(4-phenyl-1H-imidazol-2-yl)piperidin-1-yl)methanone] gave an EC50 of 50 to 300 nM. CC1CC(C(=O)N2CCCCC2c2nc(-c3ccccc3)c[nH]2)CO1 (centres unmarked) [Compound 7, (5-methyltetrahydrofuran-3-yl)(2-(4-phenyl-1H-imidazol-2-yl)piperidin-1-yl)methanone] showed an EC50 of 1000 to 35000 nM. In the case of C/C=C(\C)C(=O)N1CCCCC1c1ncc(-c2ccc(F)c(F)c2)[nH]1 (centres unmarked) [Compound 8, (E)-1-(2-(5-(3,4-difluorophenyl)-1H-imidazol-2-yl)piperidin-1-yl)-2-methylbut-2-en-1-one], the EC50 is reported as 50 to 300 nM. Work on C/C=C(\C)C(=O)N1CCCCC1c1ncc(-c2ccc(C)cc2)[nH]1 (centres unmarked) [Compound 9, (E)-2-methyl-1-(2-(5-(p-tolyl)-1H-imidazol-2-yl)piperidin-1-yl)but-2-en-1-one] yielded an EC50 of under 50 nM. C/C=C/C(C)C(=O)N1CCCCC1c1ncc(-c2ccc(C)cc2)[nH]1 (centres unmarked) [Compound 10, (E)-2-methyl-1-(2-(5-(p-tolyl)-1H-imidazol-2-yl)piperidin-1-yl)pent-3-en-1-one] showed an EC50 of under 50 nM. CS[C@@H](C)C(=O)N1CCCC[C@@H]1c1ncc(-c2ccc(C)cc2)[nH]1 [Compound 12, (S)-2-(methylthio)-1-((R)-2-(5-(p-tolyl)-1H-imidazol-2-yl)piperidin-1-yl)propan-1-one] gave an EC50 of under 50 nM. Work on CS[C@@H](C)C(=O)N1CCCC[C@H]1c1ncc(-c2ccc(C)cc2)[nH]1 [Compound 13, (S)-2-(methylthio)-1-((S)-2-(5-(p-tolyl)-1H-imidazol-2-yl)piperidin-1-yl)propan-1-one] yielded an EC50 of 50 to 300 nM. Work on Cc1ccc(-c2cnc(C3CCCCN3C(=O)C3CCOC3)[nH]2)cc1 (centres unmarked) [Compound 14, (tetrahydrofuran-3-yl)(2-(5-(p-toly)-1H-imidazol-2-yl)piperidin-1-yl)methanone] yielded an EC50 of 300 to 1000 nM. Compound CSC(C)C(=O)N1CCCCC1c1nc2ccccc2[nH]1 (centres unmarked) [Compound 15, 1-(2-(1H-benzo[d]imidazol-2-yl)piperidin-1-yl)-2-(methylthio)propan-1-one] has an EC50 of 1000 to 35000 nM. CSC(C)C(=O)N1CCCCC1c1nc(-c2cnn(C)c2)c[nH]1 (centres unmarked) [Compound 16, 1-(2-(4-(1-methyl-1H-pyrazol-4-yl)-1H-imidazol-2-yl)piperidin-1-yl)-2-(methylthio)propan-1-one] gave an EC50 of 300 to 1000 nM. CSC(C)C(=O)N1CCCCC1c1nc(-c2ccc3c(c2)OC(F)(F)O3)c[nH]1 (centres unmarked) [Compound 17, 1-(2-(4-(2,2-difluorobenzo[d][1,3]dioxol-5-yl)-1H-imidazol-2-yl)piperidin-1-yl)-2-(methylthio)propan-1-one] gave an EC50 of under 50 nM. For CSC(C)C(=O)N1CCCCC1c1nc(-c2ccc3c(c2)CCO3)c[nH]1 (centres unmarked) [Compound 18, 1-(2-(4-(2,3-dihydrobenzofuran-5-yl)-1H-imidazol-2-yl)piperidin-1-yl)-2-(methylthio)propan-1-one], the EC50 was under 50 nM. For CSC(C)C(=O)N1CCCCC1c1nc(-c2ccc3c(c2)OCC3)c[nH]1 (centres unmarked) [Compound 19, 1-(2-(4-(2,3-dihydrobenzofuran-6-yl)-1H-imidazol-2-yl)piperidin-1-yl)-2-(methylthio)propan-1-one], the EC50 was under 50 nM. CSC(C)C(=O)N1CCCCC1c1nc(-c2cc(C)ccc2C)c[nH]1 (centres unmarked) [Compound 20, 1-(2-(4-(2,5-dimethylphenyl)-1H-imidazol-2-yl)piperidin-1-yl)-2-(methylthio)propan-1-one] was tested, and the EC50 was 300 to 1000 nM. In the case of CSC(C)C(=O)N1CCCCC1c1nc(-c2ccccc2Cl)c[nH]1 (centres unmarked) [Compound 21, 1-(2-(4-(2-chlorophenyl)-1H-imidazol-2-yl)piperidin-1-yl)-2-(methylthio)propan-1-one], the EC50 is reported as under 50 nM. Compound CSC(C)C(=O)N1CCCCC1c1nc(-c2cnc(C3CC3)o2)c[nH]1 (centres unmarked) [Compound 22, 1-(2-(4-(2-cyclopropyloxazol-5-yl)-1H-imidazol-2-yl)piperidin-1-yl)-2-(methylthio)propan-1-one] has an EC50 of 50 to 300 nM. CSC(C)C(=O)N1CCCCC1c1nc(-c2ccccc2F)c[nH]1 (centres unmarked) [Compound 23, 1-(2-(4-(2-fluorophenyl)-1H-imidazol-2-yl)piperidin-1-yl)-2-(methylthio)propan-1-one] showed an EC50 of under 50 nM. CSC(C)C(=O)N1CCCCC1c1nc(-c2ccccc2O)c[nH]1 (centres unmarked) [Compound 24, 1-(2-(4-(2-hydroxyphenyl)-1H-imidazol-2-yl)piperidin-1-yl)-2-(methylthio)propan-1-one] showed an EC50 of 50 to 300 nM. In the case of CSC(C)C(=O)N1CCCCC1c1nc(-c2cccc(CN(C)C)c2)c[nH]1 (centres unmarked) [Compound 25, 1-(2-(4-(3-((dimethylamino)methyl)phenyl)-1H-imidazol-2-yl)piperidin-1-yl)-2-(methylthio)propan-1-one], the EC50 is reported as 300 to 1000 nM. CSC(C)C(=O)N1CCCCC1c1nc(-c2cc(F)cc(F)c2)c[nH]1 (centres unmarked) [Compound 26, 1-(2-(4-(3,5-difluorophenyl)-1H-imidazol-2-yl)piperidin-1-yl)-2-(methylthio)propan-1-one] was tested, and the EC50 was under 50 nM. Compound CSC(C)C(=O)N1CCCCC1c1nc(-c2c(C)noc2C)c[nH]1 (centres unmarked) [Compound 27, 1-(2-(4-(3,5-dimethylisoxazol-4-yl)-1H-imidazol-2-yl)piperidin-1-yl)-2-(methylthio)propan-1-one] has an EC50 of 1000 to 35000 nM. CSC(C)C(=O)N1CCCCC1c1nc(-c2ccc(C)c(Cl)c2)c[nH]1 (centres unmarked) [Compound 28, 1-(2-(4-(3-chloro-4-methylphenyl)-1H-imidazol-2-yl)piperidin-1-yl)-2-(methylthio)propan-1-one] gave an EC50 of under 50 nM. CSC(C)C(=O)N1CCCCC1c1nc(-c2occc2C)c[nH]1 (centres unmarked) [Compound 29, 1-(2-(4-(3-methylfuran-2-yl)-1H-imidazol-2-yl)piperidin-1-yl)-2-(methylthio)propan-1-one] was tested, and the EC50 was 50 to 300 nM.
